Assay results reported in ChEMBL document CHEMBL3046770, “1-(6-Chloronicotinyl)-2-nitroimino-imidazolidines and Related Compounds as Potential New Insecticides” (Biosci Biotechnol Biochem, 1992).
≈ marks a conversion by molar mass, not a printed value. Calls of active or inactive are those of the source. No cut-off for these calls is given here.

Test system: not listed separately
Assay: Toxicity in Leuciscus idus (golden orfe) after 96 hr
Type: organism-based
Details: in vivo
Compound `O=[N+]([O-])NC1=NCCN1Cc1ccc(Cl)nc1` [IMIDACLOPRID] has an LC50 at 96 h of 237 µg/mL (≈ 927 µM).

Test system: Nephotettix cincticeps
Assay: Insecticidal activity against Nephotettix cincticeps (green rice leafhopper) infested on rice leaf assessed as mortality after 5 days
Type: functional
Details: not given
`C=CCN1CCN(Cc2ccc(Cl)nc2)/C1=N/[N+](=O)[O-]` gave an LC90 of 0.32 ppm.
`CCCN1CCN(Cc2ccc(Cl)nc2)/C1=N/[N+](=O)[O-]` showed an LC90 of 0.32 ppm.
Work on `CCCCCN1CCN(Cc2ccc(Cl)nc2)/C1=N/[N+](=O)[O-]` yielded an LC90 of 40 ppm.
`O=C1NCCN1Cc1ccc(Cl)nc1` showed an LC90 of 1000 ppm.
`N#CN1CCN(Cc2ccc(Cl)nc2)/C1=N/[N+](=O)[O-]` gave an LC90 of 0.32 ppm.
With `O=[N+]([O-])/N=C1\NCCN1Cc1ccc(Cl)nc1` [IMIDACLOPRID] the LC90 was 0.32 ppm.
Compound `C#CCN1CCN(Cc2ccc(Cl)nc2)/C1=N/[N+](=O)[O-]` has an LC90 of 0.32 ppm.
Work on `O=C(c1ccccc1)N1CCN(Cc2ccc(Cl)nc2)/C1=N/[N+](=O)[O-]` yielded an LC90 of 0.32 ppm.
In the case of `CN1CCN(Cc2ccc(Cl)nc2)/C1=N/[N+](=O)[O-]`, the LC90 is reported as 1.6 ppm.
With `CC(C)N1CCN(Cc2ccc(Cl)nc2)/C1=N/[N+](=O)[O-]` the LC90 was 40 ppm.
For `CC(=O)N1CCN(Cc2ccc(Cl)nc2)/C1=N/[N+](=O)[O-]`, the LC90 was 0.32 ppm.
Compound `N#CC(C#N)=C1NCCN1Cc1ccc(Cl)nc1` has an LC90 of 40 ppm.
With `CCN1CCN(Cc2ccc(Cl)nc2)/C1=N/[N+](=O)[O-]` the LC90 was 8 ppm.
With `COP(=S)(OC)Oc1ccc([N+](=O)[O-])c(C)c1` [FENITROTHION] the LC90 was 200 ppm.
Compound `N=C1NCCN1Cc1ccc(Cl)nc1` [DESNITROIMIDACLOPRID] has an LC90 of 200 ppm.
Compound `O=[N+]([O-])/C=C1\NCCN1Cc1ccc(Cl)nc1` has an LC90 of 0.32 ppm.
For `CCCCN1CCN(Cc2ccc(Cl)nc2)/C1=N/[N+](=O)[O-]`, the LC90 was 1.6 ppm.

Test system: not listed separately
Assay: Toxicity in po dosed Rattus norvegicus (rat)
Type: organism-based
Details: in vivo
Work on `O=[N+]([O-])NC1=NCCN1Cc1ccc(Cl)nc1` [IMIDACLOPRID] yielded an LD50 of 450 mg/kg.

Test system: not listed separately
Assay: Toxicity in Rattus norvegicus (rat) […]
Type: organism-based
Details: in vivo
For `O=[N+]([O-])NC1=NCCN1Cc1ccc(Cl)nc1` [IMIDACLOPRID], the LD50 was greater than 5000 mg/kg.

Test system: Nephotettix cincticeps
Assay: Insecticidal activity against Nephotettix cincticeps (green rice leafhopper) infested on rice leaf assessed as increase in mortality at 1000 ppm after 5 days
Type: functional, organism-based
Details: not given
For `CCOC(=O)/C=C1\NCCN1Cc1ccc(Cl)nc1`, the Activity was “inactive”.
With `N#C/C=C1\NCCN1Cc1ccc(Cl)nc1` the Activity was “inactive”.

Test system: Lepidoptera
Assay: Insecticidal activity against Lepidoptera
Type: functional, organism-based
Details: not given
For `O=[N+]([O-])/N=C1\NCCN1Cc1ccc(Cl)nc1` [IMIDACLOPRID], the Activity was “inactive”.
